Numbers after ± are expanded uncertainties.
Experiment: xn = mol fraction of the nth substance listed
Conditions: 101 kPa, Liquid

CCCCCCCCCO [nonan-1-ol] + CCCCCCCCCCO
Conditions	mass density [kg/m3]	viscosity [mPa·s]
283.15 K, x1 = 0.1009	836.5 ± 0.6	21.5 ± 0.56
283.15 K, x1 = 0.2	836.4 ± 0.6	21.12 ± 0.55
283.15 K, x1 = 0.3	836.2 ± 0.7	20.65 ± 0.54
283.15 K, x1 = 0.4002	836 ± 0.7	20.15 ± 0.53
283.15 K, x1 = 0.5001	835.9 ± 0.7	19.71 ± 0.53
283.15 K, x1 = 0.6003	835.7 ± 0.8	19.17 ± 0.52
283.15 K, x1 = 0.6996	835.6 ± 0.8	18.59 ± 0.5
283.15 K, x1 = 0.7999	835.4 ± 0.9	18.14 ± 0.5
283.15 K, x1 = 0.9047	835.2 ± 0.9	17.78 ± 0.49
283.15 K, x1 = 1	835 ± 0.9	17.44 ± 0.48
288.15 K, x1 = 0.1009	833.2 ± 0.6	17.44 ± 0.46
288.15 K, x1 = 0.2	833 ± 0.6	17.06 ± 0.46
288.15 K, x1 = 0.3	832.8 ± 0.7	16.69 ± 0.45
288.15 K, x1 = 0.3999	832.7 ± 0.7	16.2 ± 0.44
288.15 K, x1 = 0.5001	832.5 ± 0.7	15.82 ± 0.43
288.15 K, x1 = 0.6003	832.3 ± 0.8	15.44 ± 0.42
288.15 K, x1 = 0.6996	832.2 ± 0.8	15.2 ± 0.42
288.15 K, x1 = 0.7999	832 ± 0.9	14.85 ± 0.41
288.15 K, x1 = 0.9047	831.8 ± 0.9	14.48 ± 0.41
288.15 K, x1 = 1	831.5 ± 0.9	14.27 ± 0.4
293.15 K, x1 = 0.1009	829.8 ± 0.6	14.1 ± 0.38
293.15 K, x1 = 0.2	829.6 ± 0.6	13.73 ± 0.38
293.15 K, x1 = 0.3	829.5 ± 0.7	13.5 ± 0.37
293.15 K, x1 = 0.3999	829.3 ± 0.7	13.22 ± 0.37
293.15 K, x1 = 0.5	829.1 ± 0.7	13 ± 0.36
293.15 K, x1 = 0.6003	829 ± 0.8	12.48 ± 0.35
293.15 K, x1 = 0.6996	828.8 ± 0.8	12.36 ± 0.35
293.15 K, x1 = 0.7999	828.6 ± 0.9	12.09 ± 0.34
293.15 K, x1 = 0.9047	828.4 ± 0.9	11.83 ± 0.34
293.15 K, x1 = 1	828.1 ± 0.9	11.63 ± 0.34
298.15 K, x1 = 0.1009	826.4 ± 0.6	11.52 ± 0.32
298.15 K, x1 = 0.2	826.2 ± 0.6	11.36 ± 0.32
298.15 K, x1 = 0.3	826.1 ± 0.7	11.13 ± 0.31
298.15 K, x1 = 0.4002	825.9 ± 0.7	10.87 ± 0.31
298.15 K, x1 = 0.5	825.7 ± 0.7	10.62 ± 0.3
298.15 K, x1 = 0.6003	825.5 ± 0.8	10.38 ± 0.3
298.15 K, x1 = 0.6996	825.4 ± 0.8	10.17 ± 0.3
298.15 K, x1 = 0.7999	825.1 ± 0.9	9.933 ± 0.29
298.15 K, x1 = 0.9047	824.9 ± 0.9	9.725 ± 0.29
298.15 K, x1 = 1	824.7 ± 0.9	9.519 ± 0.28
303.15 K, x1 = 0.1009	822.9 ± 0.6	9.398 ± 0.27
303.15 K, x1 = 0.2	822.8 ± 0.6	9.242 ± 0.27
303.15 K, x1 = 0.3	822.6 ± 0.7	9.083 ± 0.26
303.15 K, x1 = 0.4002	822.4 ± 0.7	8.886 ± 0.26
303.15 K, x1 = 0.5001	822.2 ± 0.7	8.703 ± 0.26
303.15 K, x1 = 0.6003	822 ± 0.8	8.504 ± 0.25
303.15 K, x1 = 0.6996	821.9 ± 0.8	8.332 ± 0.25
303.15 K, x1 = 0.7999	821.7 ± 0.9	8.16 ± 0.25
303.15 K, x1 = 0.9047	821.5 ± 0.9	7.929 ± 0.24
303.15 K, x1 = 1	821.3 ± 0.9	7.806 ± 0.24
308.15 K, x1 = 0.1009	819.5 ± 0.6	7.867 ± 0.23
308.15 K, x1 = 0.2	819.4 ± 0.6	7.739 ± 0.23
308.15 K, x1 = 0.3	819.1 ± 0.7	7.613 ± 0.23
308.15 K, x1 = 0.4002	819 ± 0.7	7.453 ± 0.23
308.15 K, x1 = 0.5	818.8 ± 0.7	7.307 ± 0.22
308.15 K, x1 = 0.6003	818.6 ± 0.8	7.151 ± 0.22
308.15 K, x1 = 0.6996	818.5 ± 0.8	7.014 ± 0.22
308.15 K, x1 = 0.7999	818.3 ± 0.9	6.857 ± 0.21
308.15 K, x1 = 0.9047	818 ± 0.9	6.693 ± 0.21
308.15 K, x1 = 1	817.8 ± 0.9	6.604 ± 0.21
313.15 K, x1 = 0.1009	816.1 ± 0.6	6.704 ± 0.21
313.15 K, x1 = 0.2	815.9 ± 0.6	6.629 ± 0.2
313.15 K, x1 = 0.3	815.7 ± 0.7	6.517 ± 0.2
313.15 K, x1 = 0.4002	815.6 ± 0.7	6.4 ± 0.2
313.15 K, x1 = 0.5001	815.3 ± 0.7	6.234 ± 0.2
313.15 K, x1 = 0.6003	815.2 ± 0.8	6.15 ± 0.2
313.15 K, x1 = 0.6996	815 ± 0.8	6.026 ± 0.19
313.15 K, x1 = 0.7999	814.8 ± 0.9	5.87 ± 0.19
313.15 K, x1 = 0.9047	814.5 ± 0.9	5.779 ± 0.19
313.15 K, x1 = 1	814.3 ± 0.9	5.668 ± 0.19

CCCCCCCCCO [nonan-1-ol] + CCCCCCCCO
Conditions	mass density [kg/m3]	viscosity [mPa·s]
283.15 K, x2 = 0	835 ± 0.9	17.44 ± 0.48
283.15 K, x2 = 0.1001	834.6 ± 0.9	16.99 ± 0.47
283.15 K, x2 = 0.1998	834.4 ± 0.9	16.57 ± 0.46
283.15 K, x2 = 0.2999	834.1 ± 0.8	16.21 ± 0.44
283.15 K, x2 = 0.4003	833.8 ± 0.8	15.79 ± 0.43
283.15 K, x2 = 0.5001	833.5 ± 0.7	15.41 ± 0.42
283.15 K, x2 = 0.6001	833.2 ± 0.7	15.01 ± 0.41
283.15 K, x2 = 0.7	832.9 ± 0.7	14.55 ± 0.4
283.15 K, x2 = 0.8001	832.7 ± 0.6	14.21 ± 0.39
283.15 K, x2 = 0.9001	832.3 ± 0.6	13.9 ± 0.38
288.15 K, x2 = 0	831.5 ± 0.9	14.27 ± 0.4
288.15 K, x2 = 0.1001	831.3 ± 0.9	13.92 ± 0.39
288.15 K, x2 = 0.1998	831 ± 0.9	13.61 ± 0.38
288.15 K, x2 = 0.2999	830.7 ± 0.8	13.2 ± 0.37
288.15 K, x2 = 0.4003	830.4 ± 0.8	12.83 ± 0.36
288.15 K, x2 = 0.5001	830.1 ± 0.7	12.5 ± 0.35
288.15 K, x2 = 0.6001	829.8 ± 0.7	12.26 ± 0.34
288.15 K, x2 = 0.7	829.5 ± 0.7	11.97 ± 0.33
288.15 K, x2 = 0.8001	829.3 ± 0.6	11.59 ± 0.32
288.15 K, x2 = 0.9001	828.9 ± 0.6	11.33 ± 0.32
293.15 K, x2 = 0	828.1 ± 0.9	11.63 ± 0.34
293.15 K, x2 = 0.1001	827.8 ± 0.9	11.38 ± 0.33
293.15 K, x2 = 0.1998	827.6 ± 0.9	11.12 ± 0.32
293.15 K, x2 = 0.2999	827.3 ± 0.8	10.79 ± 0.31
293.15 K, x2 = 0.4003	827 ± 0.8	10.55 ± 0.3
293.15 K, x2 = 0.5001	826.7 ± 0.7	10.26 ± 0.3
293.15 K, x2 = 0.6001	826.4 ± 0.7	10.04 ± 0.29
293.15 K, x2 = 0.7	826.1 ± 0.7	9.838 ± 0.28
293.15 K, x2 = 0.8001	825.8 ± 0.6	9.525 ± 0.27
293.15 K, x2 = 0.9001	825.5 ± 0.6	9.303 ± 0.27
298.15 K, x2 = 0	824.7 ± 0.9	9.519 ± 0.28
298.15 K, x2 = 0.1001	824.4 ± 0.9	9.353 ± 0.28
298.15 K, x2 = 0.1998	824.1 ± 0.9	9.135 ± 0.27
298.15 K, x2 = 0.2997	823.8 ± 0.8	8.957 ± 0.27
298.15 K, x2 = 0.4003	823.5 ± 0.8	8.749 ± 0.26
298.15 K, x2 = 0.4996	823.2 ± 0.7	8.582 ± 0.25
298.15 K, x2 = 0.6001	822.9 ± 0.7	8.43 ± 0.25
298.15 K, x2 = 0.7	822.6 ± 0.7	8.238 ± 0.24
298.15 K, x2 = 0.8001	822.4 ± 0.6	7.976 ± 0.24
298.15 K, x2 = 0.9001	822 ± 0.6	7.786 ± 0.23
303.15 K, x2 = 0	821.3 ± 0.9	7.806 ± 0.24
303.15 K, x2 = 0.1001	821 ± 0.9	7.679 ± 0.24
303.15 K, x2 = 0.1998	820.7 ± 0.9	7.537 ± 0.23
303.15 K, x2 = 0.2997	820.4 ± 0.8	7.35 ± 0.23
303.15 K, x2 = 0.4003	820.1 ± 0.8	7.171 ± 0.22
303.15 K, x2 = 0.5001	819.8 ± 0.7	7.057 ± 0.22
303.15 K, x2 = 0.6001	819.5 ± 0.7	6.936 ± 0.21
303.15 K, x2 = 0.7	819.2 ± 0.7	6.779 ± 0.21
303.15 K, x2 = 0.8001	818.9 ± 0.6	6.634 ± 0.2
303.15 K, x2 = 0.9001	818.6 ± 0.6	6.494 ± 0.2
308.15 K, x2 = 0	817.8 ± 0.9	6.604 ± 0.21
308.15 K, x2 = 0.1001	817.5 ± 0.9	6.479 ± 0.21
308.15 K, x2 = 0.1998	817.2 ± 0.9	6.356 ± 0.2
308.15 K, x2 = 0.2999	816.9 ± 0.8	6.212 ± 0.2
308.15 K, x2 = 0.4003	816.6 ± 0.8	6.055 ± 0.19
308.15 K, x2 = 0.5001	816.3 ± 0.7	5.963 ± 0.19
308.15 K, x2 = 0.6001	816 ± 0.7	5.862 ± 0.19
308.15 K, x2 = 0.7	815.7 ± 0.7	5.743 ± 0.18
308.15 K, x2 = 0.8001	815.4 ± 0.6	5.625 ± 0.18
308.15 K, x2 = 0.9001	815 ± 0.6	5.51 ± 0.18
313.15 K, x2 = 0	814.3 ± 0.9	5.668 ± 0.19
313.15 K, x2 = 0.1001	814 ± 0.9	5.579 ± 0.18
313.15 K, x2 = 0.1998	813.7 ± 0.9	5.458 ± 0.18
313.15 K, x2 = 0.2999	813.4 ± 0.8	5.377 ± 0.18
313.15 K, x2 = 0.4003	813.1 ± 0.8	5.258 ± 0.17
313.15 K, x2 = 0.5001	812.8 ± 0.7	5.181 ± 0.17
313.15 K, x2 = 0.6001	812.5 ± 0.7	5.068 ± 0.17
313.15 K, x2 = 0.7	812.2 ± 0.7	4.957 ± 0.17
313.15 K, x2 = 0.8001	812 ± 0.6	4.872 ± 0.16
313.15 K, x2 = 0.9001	811.6 ± 0.6	4.773 ± 0.16
